# According to patent publication EP0912195B1, “VACCINE COMPRISING ANTIGENS BOUND TO CARRIERS THROUGH LABILE BONDS” (PEPSCAN SYSTEMS B.V., priority 1996, dated 1997):
# Residues, ends and D or L forms follow the SMILES beside them. *: point of attachment. Palmitoyl = CCCCCCCCCCCCCCCC(=O)*
# Conditions: 3 hours
row,SMILES,stability of thioesters during acidolytic removal of tert-butyloxy functions and/or cleavage of the resin-peptide bond
1,CCCCCCCCCCCCCCCC(=O)SC[C@H](NC(C)=O)C(=O)N[C@H](C(=O)N[C@@H](C)C(=O)N[C@H](C(=O)N[C@@H](CCC(N)=O)C(=O)N[C@@H](CC(C)C)C(=O)N1CCC[C@H]1C(=O)N[C@@H](C)C(=O)N[C@@H](CO)C(=O)N[C@@H](Cc1ccccc1)C(N)=O)[C@@H](C)O)C(C)C [Ac-C(palm)VATQLPASF-NH2] (Ac-C(Palmitoyl)VATQLPASF-NH2),stable under all these acidic conditions
2,CCCCCCCCCCCCCCCC(=O)SC[C@H](NC(C)=O)C(=O)N[C@@H](CO)C(=O)N[C@@H](CCC(=O)O)C(=O)N[C@H](C(=O)N[C@@H](Cc1ccccc1)C(=O)N[C@@H](CCCNC(=N)N)C(=O)N1CCC[C@H]1C(=O)NCC(=O)NCC(=O)NCC(=O)N[C@@H](CC(=O)O)C(=O)N[C@@H](CCSC)C(=O)N[C@@H](CCCNC(=N)N)C(N)=O)[C@@H](C)CC [Ac-C(palm)SEIFRPGGGDMR-NH2] (Ac-C(Palmitoyl)SEIFRPGGGDMR-NH2),stable under all these acidic conditions
